Data on eight molecules can be found in patent publication EP0429987B1, “5,11-Dihydro-6H-dipyrido[3,2-b:2',3'-e] [1,4]diazepines and their use in the prevention or treatment of HIV infection” (priority 1989, dated 1991).

One data set addresses T1, HIV-1 RT (Human immunodeficiency virus type 1 group M subtype B, UniProt P03367).
T1 construct: Reverse transcriptase enzyme from the LAV strain of Human Immunodeficiency Virus (HIV-1) (1) was isolated; made in house; host or cells: E. coli JM109, clone pBRTprtl+ in vector pIBI21 (lac promoter, IPTG induction)
As to the kind of experiment: Reverse Transcriptase (RT) Assay: inhibition of RNA-dependent DNA polymerase activity. The class given is biochemical. As to conditions: for inhibition at 10 µg/mL: read-out: RT Assay % inhibition @ 10 µg/ml; for inhibition at 1.25 µM: @ 1.25µM (footnote +). The text has this: Utilizing the Reverse Transcriptase (RT) Assay described below, compounds can be tested for their ability to inhibit the RNA-dependent DNA polymerase activity of HIV-1 RT.
Among the enzymes for which Human Immunodeficiency Virus (HIV-1) encodes is a reverse transcriptase (1), so-named because it transcribes a DNA copy from an RNA template. This activity can be quantitatively measured in a cell-free enzyme assay, which has been previously described (2), and is based upon the observation that reverse transcriptase is able to use a synthetic template [poly r(C) primed with oligo d(G)] to transcribe a radio-labelled, acid-precipitable DNA strand utilizing ^3H-dGTP as a substrate.
Reverse transcriptase enzyme from the LAV strain of Human Immunodeficiency Virus (HIV-1) (1) was isolated from the bacterial strain JM109 (3) expressing the DNA clone pBRTprtl+ (2) which is under the control of the lac promotor in the expression vector pIBI21 (4). An overnight culture grown in 2XYT medium (37°C, 225 rpm) (5) supplemented with 100 µg/ml ampicillin for positive selection is inoculated at a 1:40 dilution into M9 medium supplemented with 10µg/ml thiamine, 0.5% casamino acids, and 50 µg/ml ampicillin (5). The culture is incubated (37°C, 225 rpm) until it reaches an OD540 of 0.3-0.4. At that time the repressor inhibitor IPTG (isopropyl β-D-thiogalactopyranoside) is added to 0.5mM, and the mixture is incubated for 2 additional hours. Bacteria are pelleted, resuspended in a 50mM Tris, 0.6mM EDTA, 0.375M NaCl buffer and digested by the addition of lysozyme (1mg/ml) for 30 minutes on ice. The cells are lysed by the addition of 0.2% NP-40 and brought to 1M NaCl.
After removal of the insoluble debris by centrifugation, the protein is precipitated by the addition of 3 volumes of saturated aqueous ammonium sulfate. The enzyme is pelleted, resuspended in RT buffer (50mM Tris pH 7.5, 1mM EDTA, 5mM DTT, 0.1% NP-40, 0.1M NaCl, and 50% glycerol), and stored at -70°C for further use.
The 2X concentrated stock reaction mixture is aliquoted and stored at -20°C. […] This enzyme assay has been adapted to a 96 well microtiter plate system, and has been previously described (6). Tris buffer (50 mM, pH 7.4), vehicle (solvent diluted to match the compound dilution), or compounds in vehicle are dispensed into 96-well microtiter plates (10µl/well; 3 wells/ compound). The HIV-1 RT enzyme is thawed, diluted in 50mM Tris pH 7.4 so that fifteen µl of diluted enzyme contain 0.001 Unit (one unit is that amount of enzyme to transform 1 micromole of substrate per minute at 25°C), and fifteen µl are dispensed per well. Twenty µl of 0.12-0.5M EDTA are added to the first three wells of the microtiter plate. EDTA chelates the Mg^++ present and prevents reverse transcription. This group serves as background polymerization which is subtracted from all other groups. Twenty-five µl of the 2X reaction mixture are added to all wells and the assay is allowed to incubate at room temperature for 60 minutes. The assay is terminated by precipitating the DNA in each well with 50µl of 10% trichloracetic acid (TCA) (10% w/v) in sodium pyrophosphate (1% w/v). The microtiter plate is incubated for 15 minutes at 4°C and the precipitate is fixed onto #30 glass fiber paper (Schleicher & Schuell) using a Skatron semi-automatic harvester. The filters are then washed with additional TCA (5%) containing sodium pyrophosphate (1%), rinsed with aqueous ethanol (70%), dried, and transferred to scintillation vials (6). Each vial receives 2 mls of scintillation cocktail and is counted in a Beckman beta counter.
The calculation for percent inhibition is as follows: %inhibition =(CPM Mean Test Value - CPM Mean Control Value X100)/(CPM Mean Control Value) [formula]

Data set [1] concerns HTLV-IIIB strain of HIV-1. As to the kind of experiment: Human T-Cell Culture Assay: inhibition of syncytia formation in c8166 cells. The class given is cell-based. Particulars: Human immunodeficiency virus 1, IIIB, 96 h, four days after virus challenge. Here is the method: In order to confirm that compounds which are active in the RT Assay also have the ability to inhibit HIV replication in a living system, compounds according to the invention were also tested in the human T-Cell Culture Assay described below.
Assay Theory: Formation of syncytia is a feature of in vitro cultures of CD4+ T-cells infected with HIV-1. In this assay, T-cells are treated with a putative replication inhibiting compound and then infected with HIV-1. After incubation, the culture is checked for the formation of syncytia. The absence or reduction in the number of syncytia is used as a measure of the test compound's ability to inhibit HIV replication.
Assay Method: The target cells, designated c8166, are a sub-clone of human lymphoma cells of T-cell origin and are established at an initial density of 5x10^4 per 100 ul in RPMI 1640 (+ 10% fetal bovine serum) culture medium in 96 well flat bottom plates. A selected amount of test compound, dissolved in DMSO, is included. After 24 hours, 50-100 TCID50's (the dose that results in induced effect in 50% of test cultures) of the HTLV-IIIB strain of HIV-1 (2) are inoculated into each culture. Control cultures receive compound or virus only. Four days after virus challenge, cultures are visually examined for the frequency and distribution of virus-induced giant cell syncytia. The percent inhibition by the test compound is determined by comparison with control values. Confirmation of the presence or absence of virus replication is accomplished by harvesting the cell free culture fluids from all experimental groups to determine the presence or absence of infectious progeny through the induction of syncytia formation in secondary human T-cell cultures after 3 days.

Data set [2] in a line: MTT Assay for Cellular Cytotoxicity. Particulars: human, h9 cells. Here is the method: In order to roughly assess the cytotoxicity of the compounds provided by the invention, several such compounds were tested in the MTT Cellular Cytotoxicity Assay described below.
The MTT [3-(4,5-dimethylthiazol-2-yl)-2,5 diphenyl tetrazolium bromide) assay is based on cleavage of tetrazolium bromide by metabolically active cells, resulting in a highly quantitative blue color. This assay has been previously described (1) but has been optimized for the purposes of the testing reported herein.
The H9 cell line (2), an established human lymphoma suspension cell line grown in RPMI 1640 supplemented with 10% fetal bovine serum, is used as the target cell line in the assay. Cells (100 µl) are plated in microtest plate wells at a concentration of 10^5 cells per ml in the presence of varying concentrations of inhibitor. The cells are incubated at 37°C in a humidified CO2 incubator. Five days later, 20µl of MTT (5mg/ml in RPMI 1640, sonicated, 0.2 micron filtered, and stored at 4°C) is added to each well. After 4 hours additional incubation at 37°C, 60µl of Triton-X is added to each well and thoroughly mixed to aid the solubilization of the crystals. Absolute ethanol (5µl) is added to each well and the resulting mixture is incubated for 30 minutes at 60°C and immediately read on a plate reader (Dynatech) at a wavelength of 570nm.
Data from this assay are used to generate a nonlinear regression analysis which yields an EC50.

One may read the CC50 as the concentration that lowers cell viability or growth by half. Low values mean harm at low concentration, high ones better tolerance by the cells.

With `CCN1c2ncccc2C(=O)Nc2c(C)ccnc21` [Example 2, 5,11-Dihydro-11-ethyl-4-methyl-6H-dipyrido-[3,2-b:2',3'-e][1,4]diazepin-6-one], the inhibition at 10 µg/mL at HIV-1 RT was found to be 100%. Besides, the inhibition at 3 µg/mL in data set [1] turned out to be 100%. In data set [2], this molecule registered a CC50 at 120 h of 200 µM.

Consider `Cc1ccnc2c1NC(=O)c1cccnc1N2C1CC1` [Example 3, 11-Cyclopropyl-5,11-dihydro-4-methyl-6H-dipyrido[3,2-b:2',3'-e][1,4]diazepin-6-one], for which the “RT Assay % inhibition @ 10 µg/ml” value on HIV-1 RT (@ 10 µg/ml) turned out to be 100%. The inhibition at 3 µg/mL in data set [1] was determined as 100%. The CC50 at 120 h in data set [2] is 250 µM.

`CCN1c2ncccc2C(=O)N(C)c2ccc(N3CCCC3)nc21` [Example 6, 5,11-Dihydro-11-ethyl-5-methyl-2-(N-pyrrolidino)-6H-dipyrido[3,2-b:2',3'-e][1,4]diazepin-6-one] returned an inhibition at 1.25 µM on HIV-1 RT of 91%. The inhibition at 3 µg/mL in data set [1] was 100%. Also, in data set [2], half-maximal cytotoxicity (CC50 at 120 h) was put at 45 µM.

With `CCN1c2ncccc2C(=O)Nc2c(C)cc(OC)nc21` [Example 7, 5,11-Dihydro-11-ethyl-2-methoxy-4-methyl-6H-dipyrido[3,2-b:2',3'-e][1,4]diazepin-6-one], the inhibition at 1.25 µM against HIV-1 RT is 96%. Besides, in data set [1], the inhibition at 3 µg/mL came out at 100%. This molecule also gave a CC50 at 120 h in data set [2] of 350 µM.

For `CCN1c2ncccc2NC(=O)c2cccnc21` [Example 14], on HIV-1 RT, the inhibition at 10 µg/mL is 99%. For the same molecule, the inhibition at 3 µg/mL in data set [1] was found to be 100%.

For `CN1C(=O)c2cccnc2N(C2CC2)c2ncccc21` [Example 47], at HIV-1 RT, the inhibition at 10 µg/mL was 100%. In addition, in data set [1], the inhibition at 3 µg/mL is 100%.

As to `CCN1c2ncccc2C(=NC#N)Nc2c(C)cc(C)nc21` [Example 66, 6-Cyanoimino-5,11-dihydro-11-ethyl-2,4-dimethyl-6H-dipyrido[3,2-b:2',3'-e][1,4]diazepine], at HIV-1 RT, the inhibition at 10 µg/mL amounted to 100%.

On to `CCN1c2ncccc2C(=NOC)Nc2c(C)cc(C)nc21` [Example 67, 5,11-Dihydro-11-ethyl-6-methoxyimino-2,4-dimethyl-6H-dipyrido[3,2-b:2',3'-e][1,4]diazepine], for which the inhibition at 1 µM at HIV-1 RT (read-out: RT Assay % inhibition) stood at 88%.
